14 compounds from PubChem BioAssay (NCI) can be followed below.

Some test systems named below: CCRF-CEM leukemia; NCI-H226 lung; SK-MEL-2 melanoma; SNB-75 CNS; TK-10 renal; SK-MEL-28 melanoma; MCF7 breast; COLO 205 colon; U251 CNS.
Assay in all cases: growth of human tumour cells (NCI), 48 h

Structures are written as SMILES.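 Assay format: 96-well plates, 48-hour exposure. The concentration for 50% growth inhibition is given as GI50. At the TGI there is no net growth.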

As for `CCCN1CCN(c2ccc3nc(-c4ccc5nc(-c6ccc(OCC)cc6)[nH]c5c4)[nH]c3c2)CC1`, the GI50 with CCRF-CEM leukemia is 0.629 µM; in the experiment with NCI-H226 lung, 10.1 µM; in the experiment with SK-MEL-2 melanoma, 2.34 µM; in the experiment on SNB-75 CNS, 0.567 µM. The TGI came to 3.58 µM in the experiment with CCRF-CEM leukemia, 32.9 µM with NCI-H226 lung, 5.86 µM with SK-MEL-2 melanoma and 29.6 µM in the experiment with SNB-75 CNS.
Consider `N#Cc1ccccc1C#C/C=C\C#Cc1ccccn1`, for which the TGI in the experiment with CCRF-CEM leukemia is above 100 µM; with TK-10 renal it was 96.2 µM; in the experiment on SK-MEL-28 melanoma it was 36 µM; in the experiment on MCF7 breast, 33.5 µM; in the experiment on COLO 205 colon it was 73.5 µM; in the experiment on U251 CNS, 38.3 µM. Also, the TGI amounted to 33.3 µM in the experiment with SK-MEL-2 melanoma and 67.6 µM in the experiment on SNB-75 CNS.
For the compound `O=[N+]([O-])c1cc(-c2ccc([As](=O)(O)O)cc2)ccc1[As](=O)(O)O`, the TGI with CCRF-CEM leukemia, in the experiment with TK-10 renal, in the experiment with SK-MEL-28 melanoma, with NCI-H226 lung, in the experiment with U251 CNS and in the experiment on SK-MEL-2 melanoma was above 100 µM in each case.
On to `Nc1nc(Cl)cc(OCC2(CO)CCCCC2)n1`, for which the TGI with CCRF-CEM leukemia, with TK-10 renal, with SK-MEL-28 melanoma, with MCF7 breast, in the experiment with NCI-H226 lung and in the experiment with U251 CNS was above 100 µM in each case. Moreover, in the experiment on SNB-75 CNS, the TGI is above 100 µM.
For the compound `O=C1/C(=C/Cc2ccco2)N=C(c2ccccc2)N1c1nc2ccc(Sc3ccccc3)cc2[nH]1`, the TGI is 44.2 µM with CCRF-CEM leukemia; above 100 µM with TK-10 renal; 85 µM in the experiment on SK-MEL-28 melanoma; 49.2 µM in the experiment on MCF7 breast; 36 µM in the experiment with COLO 205 colon; 43.9 µM with U251 CNS. The TGI in the experiment on SK-MEL-2 melanoma came out at 34.8 µM; with SNB-75 CNS, 75.7 µM.
For the compound `O=C(NC12CC3CC(CC(C3)C1)C2)n1cnc2c(Cl)ncnc21`, the TGI with CCRF-CEM leukemia is 45.7 µM; with TK-10 renal, above 100 µM; with SK-MEL-28 melanoma, above 100 µM; in the experiment with MCF7 breast, above 100 µM; in the experiment on COLO 205 colon, 32.6 µM; with U251 CNS it was 92.3 µM. Also, the TGI in the experiment with SK-MEL-2 melanoma was determined as 80.7 µM; in the experiment on SNB-75 CNS, 73.8 µM.
Turning to `COc1ccc(CNCCN2C(=O)c3ccc4c5c(ccc(c35)C2=O)C(=O)N(CCNCc2ccc(OC)c(OC)c2OC)C4=O)c(OC)c1OC`, the GI50 in the experiment on CCRF-CEM leukemia was 0.273 µM; in the experiment on MCF7 breast it was 0.222 µM; in the experiment with COLO 205 colon, 0.0899 µM; with SNB-75 CNS it was 0.903 µM. The TGI in the experiment with CCRF-CEM leukemia stood at 50 µM; with MCF7 breast, 1.15 µM; with COLO 205 colon it was 0.168 µM; with SNB-75 CNS it was 2.09 µM.
Turning to `Cn1c(SCc2ccc([N+](=O)[O-])cc2)nnc1C12CC3CC(CC(C3)C1)C2`, the TGI in the experiment on CCRF-CEM leukemia, with SK-MEL-28 melanoma, in the experiment on MCF7 breast, in the experiment on NCI-H226 lung, in the experiment on COLO 205 colon and in the experiment on U251 CNS was above 10 µM each time. The TGI with SK-MEL-2 melanoma and in the experiment on SNB-75 CNS was above 10 µM in each case.
With `C#CCN1C(=O)CN2C(Cl)(Cl)C2(c2ccccc2)c2cc(Cl)ccc21` (configuration not stated), the TGI in the experiment on CCRF-CEM leukemia, with TK-10 renal, in the experiment on SK-MEL-28 melanoma, with NCI-H226 lung, in the experiment on COLO 205 colon and with SK-MEL-2 melanoma was above 100 µM in each case.
Turning to `CNC(=O)/C(C#N)=C(\N)N1CCCC1`, the TGI with CCRF-CEM leukemia, with TK-10 renal, in the experiment on SK-MEL-28 melanoma, in the experiment with NCI-H226 lung, with COLO 205 colon and in the experiment on U251 CNS was above 100 µM in each case. The compound also yielded a TGI with SK-MEL-2 melanoma above 100 µM.
Consider `CCOC(=O)C(NS(=O)(=O)c1ccccc1)(C(F)(F)F)P(=O)(OCC(C)C)OCC(C)C` (configuration not stated), for which the TGI in the experiment on CCRF-CEM leukemia, with TK-10 renal, in the experiment with SK-MEL-28 melanoma, in the experiment on MCF7 breast, in the experiment with NCI-H226 lung and in the experiment on COLO 205 colon was above 100 µM throughout. For the same compound, the TGI in the experiment on U251 CNS and with SNB-75 CNS was above 100 µM throughout.
For the compound `COc1ccccc1-c1nc[nH]c1-c1ccccc1OC`, the TGI was above 100 µM in the experiment with TK-10 renal; above 100 µM in the experiment on SK-MEL-28 melanoma; above 100 µM in the experiment with MCF7 breast; above 100 µM in the experiment with SK-MEL-2 melanoma; 60.7 µM in the experiment with SNB-75 CNS.
Turning to `O=C(NC1CCCCC1)N1CCNC1=S`, the TGI in the experiment with CCRF-CEM leukemia was above 100 µM; in the experiment on TK-10 renal it was above 100 µM; with SK-MEL-28 melanoma it was above 100 µM; in the experiment on NCI-H226 lung it was above 100 µM; with COLO 205 colon, above 100 µM; in the experiment on SK-MEL-2 melanoma it was 7.09 µM. The compound further showed a TGI with SNB-75 CNS above 100 µM.
With `Cc1cc2nc3c(C)c4ccccc4c(C)n3c2cc1C`, the TGI was above 10 µM in the experiment on CCRF-CEM leukemia; above 10 µM in the experiment with TK-10 renal; 9 µM in the experiment on SK-MEL-28 melanoma; above 10 µM in the experiment with MCF7 breast; above 10 µM with COLO 205 colon; above 10 µM in the experiment with U251 CNS. Further, the TGI in the experiment on SK-MEL-2 melanoma and with SNB-75 CNS was above 10 µM each time.
